Measurements from ChEMBL document CHEMBL3232851 (Bioorg Med Chem, 2014).

Experiments:
[1] = molecular target: T1, Prostaglandin G/H synthase 2 (Homo sapiens, UniProt P35354); assay: Inhibition of human recombinant COX-2 by enzyme immunoassay
T1 sequence (P35354 whole entry): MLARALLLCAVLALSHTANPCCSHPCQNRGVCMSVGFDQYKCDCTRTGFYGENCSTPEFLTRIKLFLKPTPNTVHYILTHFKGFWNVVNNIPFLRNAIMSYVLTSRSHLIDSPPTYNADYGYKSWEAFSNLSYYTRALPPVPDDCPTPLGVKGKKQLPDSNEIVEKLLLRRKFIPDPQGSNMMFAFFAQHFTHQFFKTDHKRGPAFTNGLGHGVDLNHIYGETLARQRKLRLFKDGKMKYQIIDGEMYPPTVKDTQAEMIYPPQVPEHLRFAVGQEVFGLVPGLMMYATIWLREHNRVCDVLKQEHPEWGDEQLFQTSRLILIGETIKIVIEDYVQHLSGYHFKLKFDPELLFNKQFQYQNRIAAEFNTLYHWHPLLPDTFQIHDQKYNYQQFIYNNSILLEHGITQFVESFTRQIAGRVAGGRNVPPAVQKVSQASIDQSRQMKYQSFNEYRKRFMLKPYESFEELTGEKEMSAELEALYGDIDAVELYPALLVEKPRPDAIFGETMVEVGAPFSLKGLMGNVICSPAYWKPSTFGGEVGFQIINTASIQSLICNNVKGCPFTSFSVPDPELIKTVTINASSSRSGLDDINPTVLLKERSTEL

[2] = Membrane permeabilizing activity of the compound in calcein-loaded egg phosphatidylcholine liposomes assessed as release of calcein from liposomes at pH 6.8 after 10 mins by fluorescence assay; format: ADME, Microsome
[3] = tested on: COX-2; assay: Ratio of EC50 for membrane permeabilization to IC50 for human recombinant COX-2
[4] = molecular target: T2, Prostaglandin G/H synthase 1 (Ovis aries, UniProt P05979); assay: Inhibition of purified ovine COX-1 by enzyme immunoassay
T2 sequence (P05979 whole entry): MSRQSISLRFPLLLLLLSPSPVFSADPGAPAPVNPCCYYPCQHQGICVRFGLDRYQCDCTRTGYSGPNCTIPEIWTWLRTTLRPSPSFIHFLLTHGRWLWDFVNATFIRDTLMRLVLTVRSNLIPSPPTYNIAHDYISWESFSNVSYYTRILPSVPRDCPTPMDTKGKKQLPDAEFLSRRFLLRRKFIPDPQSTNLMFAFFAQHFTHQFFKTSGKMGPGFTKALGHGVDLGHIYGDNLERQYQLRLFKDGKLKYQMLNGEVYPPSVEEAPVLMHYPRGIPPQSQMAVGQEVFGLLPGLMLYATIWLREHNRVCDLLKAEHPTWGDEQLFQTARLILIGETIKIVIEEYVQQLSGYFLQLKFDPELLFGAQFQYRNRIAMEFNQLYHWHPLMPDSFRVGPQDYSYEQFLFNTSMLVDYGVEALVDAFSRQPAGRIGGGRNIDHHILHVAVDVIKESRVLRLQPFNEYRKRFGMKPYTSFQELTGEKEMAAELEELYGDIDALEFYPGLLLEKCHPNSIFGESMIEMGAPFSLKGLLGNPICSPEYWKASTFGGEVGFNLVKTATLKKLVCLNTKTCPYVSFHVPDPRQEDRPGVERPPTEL

For `Cc1ccc(C2=C(c3ccc(S(C)(=O)=O)cc3)COC2=O)cc1`, the IC50 [1] was 0.3 µM, the EC50 [2] was 6230 µM and the calcein release EC50/COX-2 IC50 ratio [3] was 20.8. The IC50 [4] was > 500 µM.

`Cc1ccc(-c2cc(C(F)(F)F)nn2-c2ccc(S(N)(=O)=O)cc2)cc1` [CELECOXIB] showed an EC50 [2] of 50 µM.

Work on `NS(=O)(=O)c1ccc(C2=C(c3ccccc3)C(=O)OC2)cc1` yielded an EC50 [2] of 480 µM.

With `Cc1ccc(C2=C(c3ccc(S(N)(=O)=O)cc3)COC2=O)cc1` the IC50 [1] was 0.11 µM, the EC50 [2] was 24 µM and the calcein release EC50/COX-2 IC50 ratio [3] was 0.22. It also gave an IC50 [4] of 385 µM.

In the case of `CS(=O)(=O)c1ccc(-n2nc(C(F)(F)F)cc2-c2ccccc2)cc1`, the IC50 [1] is reported as 6.84 µM, the EC50 [2] is reported as 1300 µM and the calcein release EC50/COX-2 IC50 ratio [3] is reported as 0.19. The IC50 [4] was > 500 µM.

Compound `CS(=O)(=O)c1ccc(C2=C(c3ccccc3)C(=O)OC2)cc1` [ROFECOXIB] has an EC50 [2] of 12600 µM.

`Cc1ccc(-c2cc(C(F)(F)F)nn2-c2ccc(S(C)(=O)=O)cc2)cc1` showed an IC50 [1] of 0.13 µM, an EC50 [2] of 1440 µM and a calcein release EC50/COX-2 IC50 ratio [3] of 11.1. For the same compound, the IC50 [4] was > 500 µM.
